The test system of data set [1] is A549 cells. The experiment in a line: In vitro activity against cancer cell lines (MTT), A549. To be noted: Homo sapiens, mean ± SD of three replicates. Format: cell-based.
Description: (§1) Co., Ltd. A549 (Human non-small-cell lung cancer cell line) cells, MCF-7 (Human breast cancer
(§2) cell line) cells, and PC-3 (Human prostate cancer cell line) cells. They were all purchased from the
(§3) Shanghai Cell Bank of the Chinese Academy of Sciences. NRK-52E (Normal rat kidney cell line)
(§4) cells donated by Guizhou Medicinal University were also used to evaluate the cytotoxicity.
A further data set has as its system PC-3 cells. Kind of data set: In vitro activity against cancer cell lines (MTT), PC-3. Format: cell-based. To be noted: Homo sapiens, mean ± SD of three replicates.
For another data set, the target named is T1, EGFR^wt-TK (Homo sapiens, UniProt P00533).
T1 construct: purchased
T1 sequence (P00533 25-1210): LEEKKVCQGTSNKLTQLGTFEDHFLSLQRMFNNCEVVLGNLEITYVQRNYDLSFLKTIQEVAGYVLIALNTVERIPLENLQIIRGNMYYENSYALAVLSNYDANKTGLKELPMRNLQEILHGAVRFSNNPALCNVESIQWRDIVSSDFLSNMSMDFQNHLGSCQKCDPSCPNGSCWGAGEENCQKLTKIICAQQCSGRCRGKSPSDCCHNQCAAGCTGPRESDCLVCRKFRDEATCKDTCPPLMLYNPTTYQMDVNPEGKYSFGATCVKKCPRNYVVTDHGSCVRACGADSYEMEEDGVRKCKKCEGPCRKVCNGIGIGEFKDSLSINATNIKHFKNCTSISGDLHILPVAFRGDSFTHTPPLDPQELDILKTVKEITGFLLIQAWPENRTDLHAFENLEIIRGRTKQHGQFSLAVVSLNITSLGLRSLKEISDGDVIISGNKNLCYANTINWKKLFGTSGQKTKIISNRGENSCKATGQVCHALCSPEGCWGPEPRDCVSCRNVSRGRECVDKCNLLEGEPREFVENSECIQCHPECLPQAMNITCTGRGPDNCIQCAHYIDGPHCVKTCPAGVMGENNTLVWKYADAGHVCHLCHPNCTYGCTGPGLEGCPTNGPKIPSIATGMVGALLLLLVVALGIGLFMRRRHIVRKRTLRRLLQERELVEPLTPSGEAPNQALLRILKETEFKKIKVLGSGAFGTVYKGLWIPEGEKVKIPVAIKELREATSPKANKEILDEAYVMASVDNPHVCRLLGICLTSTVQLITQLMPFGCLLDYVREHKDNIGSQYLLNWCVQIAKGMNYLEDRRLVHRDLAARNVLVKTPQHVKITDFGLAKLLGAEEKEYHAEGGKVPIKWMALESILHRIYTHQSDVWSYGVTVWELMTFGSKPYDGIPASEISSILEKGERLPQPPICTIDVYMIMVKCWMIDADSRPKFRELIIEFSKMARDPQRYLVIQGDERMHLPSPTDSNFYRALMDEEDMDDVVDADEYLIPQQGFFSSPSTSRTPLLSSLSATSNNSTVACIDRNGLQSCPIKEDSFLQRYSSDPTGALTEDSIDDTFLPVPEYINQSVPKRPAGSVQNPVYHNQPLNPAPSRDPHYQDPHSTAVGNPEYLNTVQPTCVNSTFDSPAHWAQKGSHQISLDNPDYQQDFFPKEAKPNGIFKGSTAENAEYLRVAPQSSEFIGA
Kind of data set: In vitro EGFR^wt-TK assay (ELISA kit). Format: biochemical. The conditions noted are these: mean ± SD of three replicates; for inhibition at 1 µM: read-out: EGFR^wt-TK inhibition rate; for inhibition at 1 µM / EGFR^wt-TK inhibition rate: 1 μM. On the technique in general: In an ELISA, binding on a coated surface is turned into a signal by an enzyme label.

The subject of a further data set is MCF-7 cells. The experiment in a line: In vitro activity against cancer cell lines (MTT), MCF-7. Format: cell-based. To be noted: Homo sapiens, MCF7, mean ± SD of three replicates.
Data set [2] deals with A549 cells. Kind of data set: A549 cell cycle analysis (flow cytometry). Format: cell-based, Human. On the technique in general: In flow cytometry, cells or beads pass a laser one at a time.
For data set [3], the system named is NRK-52E (Normal rat kidney cell line) cells. Kind of data set: Cytotoxicity evaluation against normal cell line (MTT). Format: cell-based. The conditions noted are these: 10 μM. From the text: Three tumour cells A549, MCF-7, and PC-3 with high expression of EGFR^wt were used to investigate antitumor activities of compounds 9a–9x. NRK-52E (Normal rat kidney cell line) cells were used to evaluate cytotoxicity of compounds 9a–9x. They were all tested with typical MTT method, and Gefitinib were used as positive controls.
NRK-52E (Normal rat kidney cell line) cells were used to evaluate cytotoxicity of compounds 9a–9x.

The test system of data set [4] is A549 cells. Kind of data set: A549 cell apoptosis (Annexin V-FITC/PI flow cytometry). To be noted: 48 h.
Protocol: And then, the original culture medium was replaced with 0.1 μM, 0.5 μM, and 1 μM compounds (Geftinib or the testing compound) in the cell incubator for 48 h. After trypsin digests cells, the cells were collected after centrifugation, resuspended with PBS and counted. After suspension of the cells with Annexin V – FITC binding solution and mixing with PI staining solution, the fluorescence density was detected by flow cytometry in BD Accuri C6 flow cytometry, which was provided by School of Pharmaceutical Sciences, Guizhou University, China.

The values below come from PMC9542405, “Design, synthesis and antitumor activity of 5-trifluoromethylpyrimidine derivatives as EGFR inhibitors” (Journal of Enzyme Inhibition and Medicinal Chemistry, 2022).

Structures are written as SMILES.

The term IC50 denotes the concentration that inhibits the measured activity by half. A word on the melting point: it is the temperature, or range, at which the solid turns liquid. For orientation: inhibition means the change of the read-out against control, counted positive when it falls.

Protocol for EGFR^wt-TK: The IC50 values of target compounds against EGFR^wt were calculated from the dose − response curve under Graph-Pad Prism 9, which was tested at the different concentrations.
Description for MCF-7 cells: as §1, §2, §3, §4
Description for PC-3 cells: as §1, §2, §3, §4

The compound `CNC(=O)c1sccc1Nc1nc(Nc2ccc(NC(=O)C3CCCC3)cc2)ncc1C(F)(F)F` [Compound 9n, 3-{2-[4-(Cyclopentanecarbonyl-amino)-phenylamino]-5-trifluoromethyl-pyrimidin-4-ylamino}-thiophene-2-carboxylic acid methylamide] yielded a melting point of 246.4 to 247.2 °C. The IC50 with A549 cells [1] came out at 13.8 ± 1.57 µM. Besides, the IC50 in the data set on PC-3 cells is above 20 µM. Also, the inhibition at 1 µM on EGFR^wt-TK stood at 18.9 ± 1.14%. In the data set with MCF-7 cells, this compound came in with an IC50 above 20 µM.
`CNC(=O)c1sccc1Nc1nc(Nc2ccc(NC(=O)C3CCCCC3)cc2)ncc1C(F)(F)F` [Compound 9o, 3-{2-[4-(Cyclohexanecarbonyl-amino)-phenylamino]-5-trifluoromethyl-pyrimidin-4-ylamino}-thiophene-2-carboxylic acid methylamide] showed a melting point of 246.7 to 248.2 °C. The compound further came in with an IC50 in the data set on A549 cells [1] of 8.49 ± 0.63 µM. In the data set on PC-3 cells, this compound gave an IC50 above 20 µM. Moreover, the inhibition at 1 µM at EGFR^wt-TK turned out to be 26.6 ± 1.38%. Also, in the data set with MCF-7 cells, the IC50 was found to be 13.5 ± 1.24 µM.
For `CNC(=O)c1sccc1Nc1nc(Nc2ccc(NC(=O)C3CCOCC3)cc2)ncc1C(F)(F)F` [Compound 9p, Tetrahydro-pyran-4-carboxylicacid{4-[4-(2-methylcarbamoyl-thiophen-3-ylamino)-5-trifluoromethyl-pyrimidin-2-ylamino]-phenyl}-amide] the same measures were 232.3 to 233.8 °C, 7.28 ± 0.47 µM, above 20 µM, 36.46 ± 0.23% and 10 ± 0.96 µM.
`CNC(=O)c1sccc1Nc1nc(Nc2ccc(NC(=O)C3CCN(C)CC3)cc2)ncc1C(F)(F)F` [Compound 9r, 1-Methyl-piperidine-4-carboxylicacid{4-[4-(2-methylcarbamoyl-thiophen-3-ylamino)-5-trifluoromethyl-pyrimidin-2-ylamino]-phenyl}-amide]: the melting point was in the range of 210.8 to 211.6 °C. In addition, the IC50 in the data set with A549 cells [1] amounted to 8.41 ± 0.92 µM. The compound also had an IC50 with PC-3 cells above 20 µM. Moreover, on EGFR^wt-TK, the inhibition at 1 µM turned out to be 33 ± 0.57%. In the data set on MCF-7 cells, this compound came in with an IC50 of 11.2 ± 1.47 µM.
The compound `CNC(=O)c1sccc1Nc1nc(Nc2ccc(NC(=O)C3CCN(C(C)=O)CC3)cc2)ncc1C(F)(F)F` [Compound 9s, 1-Acetyl-piperidine-4-carboxylicacid{4-[4-(2-methylcarbamoyl-thiophen-3-ylamino)-5-trifluoromethyl-pyrimidin-2-ylamino]-phenyl}-amide] returned a melting point above 250 °C. For the same compound, the IC50 in the data set with A549 cells [1] was determined as 6.92 ± 0.38 µM. In addition, the IC50 in the data set with PC-3 cells was above 20 µM. For the same compound, the inhibition at 1 µM on EGFR^wt-TK was found to be 37.1 ± 0.46%. The same compound had an IC50 in the data set on MCF-7 cells of 9.75 ± 0.85 µM.
Turning to `CNC(=O)c1sccc1Nc1nc(Nc2ccc(NC(=O)C=Cc3ccccc3)cc2)ncc1C(F)(F)F` [Compound 9t, 3-{2-[4-(3-Phenyl-acryloylamino)-phenylamino]-5-trifluoromethyl-pyrimidin-4-ylamino}-thiophene-2-carboxylic acid methylamide], the melting point is 212.5 to 213.8 °C. It took 3.67 ± 0.61 µM to reach half-maximal inhibition in the data set on A549 cells [1] (IC50). The compound further returned an IC50 in the data set on PC-3 cells above 20 µM. Further, on EGFR^wt-TK, the “EGFR^wt-TK inhibition rate” value is on record as 53.56 ± 1.69%, the inhibition at 1 µM was above 50% and the IC50 came to 0.26 ± 0.071 µM. In the data set with MCF-7 cells, this compound showed an IC50 of 6.45 ± 0.53 µM.
For `CNC(=O)c1sccc1Nc1nc(Nc2ccc(NC(=O)C=Cc3cccc(F)c3)cc2)ncc1C(F)(F)F` [Compound 9u, 3–(2-{4-[3-(3-Fluoro-phenyl)-acryloylamino]-phenylamino} -5-trifluoromethyl-pyrimidin-4-ylamino)-thiophene-2-carboxylic acid methylamide], the melting point was 237.5 to 238.8 °C. This compound also came in with a concentration for half-maximal inhibition (IC50) with A549 cells [1] of 0.35 ± 0.11 µM. In the data set on PC-3 cells, this compound displayed an IC50 of 5.12 ± 0.73 µM. Besides, in the data set with A549 cells [2] (0.1 μM), the “Proportion of A549 cells at G2/M” value is recorded as 19.79%. Moreover, the “Proportion of A549 cells at G2/M” value in the data set with A549 cells [2] (1 μM) turned out to be 43.92%. Further, in data set [3], the “inhibition against NRK-52E cells” value is listed as “less than 5%”. In addition, on EGFR^wt-TK, the “EGFR^wt-TK inhibition rate” value is on record as 62.73 ± 1.86%, the inhibition at 1 µM was above 50% and the IC50 came out at 0.091 ± 0.0084 µM. In the data set with A549 cells [4] (A549, 0.1 μM), the “Q2-4 (early apoptosis)” value was found to be 3.39%. Also, the “Q2-4 (early apoptosis)” value in the data set on A549 cells [4] (A549, 1 μM) was determined as 52.96%. The compound also registered an IC50 in the data set with MCF-7 cells of 3.24 ± 0.16 µM.
Regarding `CNC(=O)c1sccc1Nc1nc(Nc2ccc(NC(=O)C=Cc3ccc(F)cc3)cc2)ncc1C(F)(F)F` [Compound 9v, 3–(2-{4-[3-(4-Fluoro-phenyl)-acryloylamino]-phenylamino}-5-trifluoromethyl-pyrimidin-4-ylamino)-thiophene-2-carboxylic acid methylamide], the melting point lay in the range of 248.8 to 249.1 °C. In the data set with A549 cells [1], this compound came in with an IC50 of 0.46 ± 0.27 µM. Moreover, in the data set with PC-3 cells, it took 7.88 ± 1.34 µM to reach half-maximal inhibition (IC50). In addition, at EGFR^wt-TK, the “EGFR^wt-TK inhibition rate” value is 58.14 ± 1.76%, the inhibition at 1 µM is above 50% and half-maximal inhibition (IC50) was put at 0.14 ± 0.053 µM. Also, in the data set on MCF-7 cells, the concentration for half-maximal inhibition (IC50) was 4.13 ± 0.21 µM.
`CNC(=O)c1sccc1Nc1nc(Nc2ccc(NC(=O)Nc3cccc(F)c3)cc2)ncc1C(F)(F)F` [Compound 9w, 3-(2-{4-[3–(3-Fluoro-phenyl)-ureido]-phenylamino}-5-trifluoromethyl-pyrimidin-4-ylamino)-thiophene-2-carboxylic acid methylamide]: the melting point is above 250 °C. Also, in the data set with A549 cells [1], the IC50 was determined as 3.98 ± 0.83 µM. The IC50 with PC-3 cells was 10.6 ± 1.74 µM. Besides, the inhibition at 1 µM on EGFR^wt-TK worked out at 47.7 ± 1.72%. Further, in the data set on MCF-7 cells, the IC50 was found to be 6.15 ± 0.77 µM.
On the same counts, the results for `CNC(=O)c1sccc1Nc1nc(Nc2ccc(NC(=O)Nc3ccc(F)cc3)cc2)ncc1C(F)(F)F` [Compound 9x, 3–(2-{4-[3–(4-Fluoro-phenyl)-ureido]-phenylamino}-5-trifluoromethyl-pyrimidin-4-ylamino)-thiophene-2-carboxylic acid methylamide] are above 250 °C, 4.25 ± 0.86 µM, 11.5 ± 1.23 µM, 44.5 ± 1.84% and 6.38 ± 0.97 µM.
As to `COc1cc2ncnc(Nc3ccc(F)c(Cl)c3)c2cc1OCCCN1CCOCC1` [Gefitinib], the “Proportion of A549 cells at G2/M” value in the data set on A549 cells [2] (0.1 μM) was 17.32%; in the data set with A549 cells [2] (0.5 μM) it was 20.72%; with A549 cells [2] (1 μM), 21.45%. In addition, the “Q2-4 (early apoptosis)” value amounted to 1.03% with A549 cells [4] (A549, 0.1 μM) and 11.98% in the data set on A549 cells [4] (A549, 1 μM).
